{
  "source": "patent US20090048173A1",
  "about": "“Use Of Dipyridamole For Treatment Of Resistance To Platelet Inhibitors” (priority 2004, published 2009)",
  "key": {"platelet aggregability": {"system": "platelet aggregability", "conditions": "aspirin resistant or aspirin semiresponders; literature 2001-2004; cited from earlier work"}, "[1]": {"system": "Annexin V binding sites on platelets", "experiment": "Flow cytometry: Annexin V binding on platelets", "format": "cell-based, human", "conditions": "for Annexin V binding (PS % positive cells): non-responder blood, 45 min, baseline 9.5 ± 2.7", "method": "(§1) Aspirin/clopidogrel resistance is defined by lack of platelet inhibition after one month of mono- or combination therapy. Lack of platelet inhibition is defined when 4 out of the following 5 parameters are met: ADP-induced platelet aggregation remains >60%; collagen-induced aggregation >70%; whole blood aggregation >18 ohms; expression of GP IIb/IIIa >220 log MFI; and P-selectin cell positivity >8%.\n(§2) Experiments are done (blood is incubated) with dipyridamole 2 μM/L and 4 μM/L.\n(§3) Twenty ml of blood were collected from each participant, divided into 3 parts, and 2 parts were incubated for 45 min with 2 μM/L and 4 μM/L of Dipyridamole. This concentration corresponds to the physiological Dipyridamole concentration in plasma achieved 0.8-12 hours after oral administration of Aggrenox (25 mg of aspirin+200 mg of Dipyridamole). The third portion was incubated with the vehicle and served as internal control.\n(§4) Patients on other antithrombotic agents including COX inhibitors, and NSAID were excluded. Blood samples were pretreated with dipyridamole (2 mkg/ml, 4 mkg/ml), simulating the therapeutic range, and then incubated for 45 minutes at 37° C. Platelets were assessed by conventional (1 μM collagen, 0.75 μM arachidonic acid, and 5 μM ADP), and whole blood (1 mg/ml collagen) aggregometry; the expression of GP IIb/IIIa, P-selectin, annexin V binding, intact (SPAN12), and cleaved (WEDE15) PAR-1 thrombin receptors by flow cytometry. Markers of TR (D-Dimer, Thrombin-Antithrombin-III Complexes, and Prothrombin Fragment F1+2) were measured in the autologous plasma samples by ELISA."}, "platelets": {"system": "platelets", "experiment": "Platelet aggregation, conventional aggregometry, in blood of aspirin/clopidogrel resistant stroke/TIA patients pretreated in vitro with dipyridamole", "format": "cell-based, human", "conditions": "for Platelet aggregation 5 μM ADP: baseline 65.5 ± 6.3; for Platelet aggregation Collagen 1 μM / Platelet aggregation Arachidonic Acid 0.75 μM: non-responder blood, 45 min; for Platelet aggregation Collagen 1 μM: baseline 65.9 ± 8.9; for Platelet aggregation Arachidonic Acid 0.75 μM: baseline 72.5 ± 9.5", "method": "as §1, §2, §3, §4"}, "thrombin generation": {"system": "thrombin generation", "experiment": "Thrombin generation markers in autologous plasma by ELISA", "format": "cell-based, human", "conditions": "for Prothrombin fragment F1 + 2 / Thrombin-antithrombin III Complex / Thrombin generation markers D-dimer: non-responder blood, 45 min; for Prothrombin fragment F1 + 2: baseline 1.9 ± 1.0; for Thrombin-antithrombin III Complex: baseline 3.2 ± 1.1; for Thrombin generation markers D-dimer: baseline 325.0 ± 84.6", "method": "as §1, §2, §3, §4"}, "P-selectin": {"system": "P-selectin", "experiment": "Flow cytometry: platelet expression of CD62p (P-selectin)", "format": "cell-based, human", "conditions": "non-responder blood, 45 min, baseline 10.0 ± 1.8", "method": "as §1, §2\nas §3, with “The third portion was incubated with the vehicle and served as internal control.” left out\nas §4, with “Blood samples were pretreated with dipyridamole (2 mkg/ml, 4 mkg/ml), simulating the therapeutic range, and then incubated for 45 minutes at 37° C.” left out"}, "GP IIb/IIIa": {"system": "GP IIb/IIIa", "experiment": "Flow cytometry: platelet expression of CD41a (GP IIb/IIIa)", "format": "cell-based, human", "conditions": "for Flow-cytometry CD41a (GP IIb), MFI: non-responder blood, 45 min, baseline 429.0 ± 52.1", "method": "as §1, §2, §3, §4"}, "[2]": {"conditions": "ESPS-2; J Neurol Sci. 1996; Neurology 1998; cited from earlier work"}, "[3]": {"system": "Thrombin receptor (PAR-1)", "experiment": "Flow cytometry: intact (SPAN12) and cleaved (WEDE15) PAR-1 thrombin receptors on platelets", "format": "cell-based, human", "conditions": "for Thrombin receptor (PAR-1) WEDE 15 (epitope of cleaved receptors) / Thrombin receptor (PAR-1) SPAN 12 (epitope of intact receptor): non-responder blood, 45 min; for Thrombin receptor (PAR-1) WEDE 15 (epitope of cleaved receptors): baseline 20.2 ± 3.4; for Thrombin receptor (PAR-1) SPAN 12 (epitope of intact receptor): baseline 31.6 ± 6.4", "method": "as §1, §2, §3, §4"}, "[4]": {"conditions": "Dipyridamole 4 μg/ml, p = 0.022"}, "[5]": {"conditions": "DIP in vitro, 2 and 4 mkg/ml, blood of AR patients, listed as DIP"}, "[6]": {"conditions": "addition of DIP in vitro in AR patients"}},
  "note": "“Also recorded” adds a separate entry of the source.",
  "data": [
    {"smiles": "CC(=O)Oc1ccccc1C(=O)O", "note": "[ASA, acetylsalicylic acid]", "values": [
      {"measurement": "patients treated with ASA who did not show appropriate reduction in platelet aggregability", "setting": "platelet aggregability", "result": "up to 30%"}
    ]},
    {"smiles": "OCCN(CCO)c1nc(N2CCCCC2)c2nc(N(CCO)CCO)nc(N3CCCCC3)c2n1", "note": "[Dipyridamole, 2,6-bis(diethanolamino)-4,8-dipiperidino-pyrimido[5,4-d]pyrimidine]", "values": [
      {"measurement": "annexin V binding (in words)", "setting": "[1]; after incubation with 2 mkg/ml and 4 mkg/ml of dipyridamole (p=0.031 and p=0.02), listed as DIP", "result": "diminished; also recorded: sustained blockade"},
      {"measurement": "Annexin V binding sites compared to pre-incubation", "setting": "[1]; incubation of cells with DIP, patients with anti-platelet therapy resistance, e.g. ASA or clopidogrel resistance", "result": "significant reduction"},
      {"measurement": "Annexin V binding (PS % positive cells)", "setting": "[1]; Dipyridamole 2 μg/ml, p = 0.031", "result": "7.9 ± 2.3", "unit": "% positive cells"},
      {"measurement": "Annexin V binding (PS % positive cells)", "setting": "[1]; [4]", "result": "7.7 ± 1.9", "unit": "% positive cells"},
      {"measurement": "Platelet aggregation / aggregometry (in words)", "setting": "platelets; [5]", "result": "not affected; also recorded: not changed"},
      {"measurement": "Platelet aggregation 5 μM ADP", "setting": "platelets; non-responder blood (n = 20) incubated 45 min at 37° C. with Dipyridamole 2 μg/ml, p = 0.13", "result": "63.6 ± 6.8", "unit": "%"},
      {"measurement": "Platelet aggregation 5 μM ADP", "setting": "platelets; non-responder blood (n = 20) incubated 45 min at 37° C. with Dipyridamole 4 μg/ml, p = 0.66", "result": "63.8 ± 6.8", "unit": "%"},
      {"measurement": "Platelet aggregation Collagen 1 μM", "setting": "platelets; Dipyridamole 2 μg/ml, p = 0.13", "result": "64.2 ± 7.4", "unit": "%"},
      {"measurement": "Platelet aggregation Arachidonic Acid 0.75 μM", "setting": "platelets; Dipyridamole 2 μg/ml, p = 0.41", "result": "71.4 ± 7.3"},
      {"measurement": "Platelet aggregation Collagen 1 μM", "setting": "platelets; Dipyridamole 4 μg/ml, p = 0.38", "result": "64.2 ± 6.9", "unit": "%"},
      {"measurement": "Platelet aggregation Arachidonic Acid 0.75 μM", "setting": "platelets; Dipyridamole 4 μg/ml, p = 0.12", "result": "70.6 ± 6.2"},
      {"measurement": "TG markers / TR markers (in words)", "setting": "thrombin generation; [5]", "result": "not affected; also recorded: not changed"},
      {"measurement": "Prothrombin fragment F1 + 2", "setting": "thrombin generation; Dipyridamole 2 μg/ml, p = 0.17", "result": "1.8 ± 1.0", "unit": "nM/L"},
      {"measurement": "Thrombin-antithrombin III Complex", "setting": "thrombin generation; Dipyridamole 2 μg/ml, p = 0.49", "result": "3.2 ± 1.2", "unit": "µg/L"},
      {"measurement": "Thrombin generation markers D-dimer", "setting": "thrombin generation; Dipyridamole 2 μg/ml, p = 0.55", "result": "316.1 ± 90.1", "unit": "µg/L"},
      {"measurement": "Prothrombin fragment F1 + 2", "setting": "thrombin generation; Dipyridamole 4 μg/ml, p = 0.41", "result": "1.8 ± 0.9", "unit": "nM/L"},
      {"measurement": "Thrombin-antithrombin III Complex", "setting": "thrombin generation; Dipyridamole 4 μg/ml, p = 0.24", "result": "3.1 ± 1.2", "unit": "µg/L"},
      {"measurement": "Thrombin generation markers D-dimer", "setting": "thrombin generation; Dipyridamole 4 μg/ml, p = 0.48", "result": "310.8 ± 83.8", "unit": "µg/L"},
      {"measurement": "Flow-cytometry CD62p (P-selectin), % +", "setting": "P-selectin; Dipyridamole 2 μg/ml, p = 0.308", "result": "9.4 ± 2.8", "unit": "% +"},
      {"measurement": "Flow-cytometry CD62p (P-selectin), % +", "setting": "P-selectin; Dipyridamole 4 μg/ml, p = 0.21", "result": "9.4 ± 2.4", "unit": "% +"},
      {"measurement": "GP IIb/IIIa (in words)", "setting": "GP IIb/IIIa; [6]", "result": "sustained blockade"},
      {"measurement": "Flow-cytometry CD41a (GP IIb), MFI", "setting": "GP IIb/IIIa; Dipyridamole 2 μg/ml, p = 0.12", "result": "417.6 ± 49.5", "unit": "MFI"},
      {"measurement": "Flow-cytometry CD41a (GP IIb), MFI", "setting": "GP IIb/IIIa; Dipyridamole 4 μg/ml, p = 0.22", "result": "419.4 ± 49.1", "unit": "MFI"},
      {"measurement": "reduction of stroke risk", "setting": "[2]", "result": "as effective as low-dose aspirin"},
      {"measurement": "PAR-1 receptors (in words)", "setting": "[3]; [6]", "result": "sustained blockade"},
      {"measurement": "expression of intact PAR-1 receptor (in words)", "setting": "[3]; after incubation with 2 mkg/ml and 4 mkg/ml of dipyridamole (p=0.02 and p=0.024)", "result": "diminished expression"},
      {"measurement": "Thrombin receptor (PAR-1) WEDE 15 (epitope of cleaved receptors)", "setting": "[3]; Dipyridamole 2 μg/ml, p = 0.0507", "result": "18.4 ± 3.1"},
      {"measurement": "Thrombin receptor (PAR-1) SPAN 12 (epitope of intact receptor)", "setting": "[3]; Dipyridamole 2 μg/ml, p = 0.02", "result": "27.8 ± 5.4"},
      {"measurement": "Thrombin receptor (PAR-1) WEDE 15 (epitope of cleaved receptors)", "setting": "[3]; [4]", "result": "18.1 ± 3.0"},
      {"measurement": "Thrombin receptor (PAR-1) SPAN 12 (epitope of intact receptor)", "setting": "[3]; Dipyridamole 4 μg/ml, p = 0.024", "result": "29.1 ± 5.5"},
      {"measurement": "activity of the cleaved PAR-1 (in words)", "setting": "[3]; only after incubation with 4 mkg/ml, statistically significant (p=0.022)", "result": "decreased activity"}
    ]}
  ]
}
